Experimental data published in patent US6426229B1, “Chelating agent and detergent comprising the same” (Mitsubishi Rayon Co., Ltd., priority 1995, dated 2002).

test: Compression strength (hardening property) of powder stored under load for 2 months; type: physicochemical; conditions: Load 100 (table head [Kg]; text 100 g/cm^2); 20-30° C., relative humidity 40-70%
Protocol: Method for the Measurement of Compression Strength
(1) A test sample (500 g) is put in a poly-ethylene bag of 20 cm×20 cm in a room at a temperature of 20-30° C. and a relative humidity of 40-70%. The powder is levelled to an area of 20 cm×20 cm and air is forced out of the bag, and, then, the bag is sealed. This bag is further put in a kraft bag and this kraft bag is sealed.
(2) The kraft bag of (1) is placed horizontally on a flat plate and a plate is put thereon. […]
(3) With keeping the temperature of 20-30° C. and the relative humidity of 40-70%, the test sample is taken out after lapse of 2 months from the starting of application of load. Several test pieces (4 cm long×4 cm broad×2 cm high) are cut out from the sample.

Compression strength after stored for 2 months	Structure (SMILES)
1.3 Kg/cm^2	O=C([O-])C[C@@H](C(=O)[O-])N(CC(=O)[O-])CC(=O)[O-].[Na+].[Na+].[Na+].[Na+] [Example 7, tetrasodium salt of (S)-aspartic acid-N,N-diacetic acid]
1.0 Kg/cm^2	C[C@@H](C(=O)[O-])N(CC(=O)[O-])CC(=O)[O-].[Na+].[Na+].[Na+] [Example 8, trisodium salt of (S)-α-alanine-N,N-diacetic acid]
1.1 Kg/cm^2	O=C(O)C[C@@H](C(=O)O)N(CC(=O)O)CC(=O)O [Example 19, (S)-aspartic acid-N,N-diacetic acid]
1.0 Kg/cm^2	C[C@@H](C(=O)O)N(CC(=O)O)CC(=O)O [Example 20, (S)-α-alanine-N,N-diacetic acid]
1.3 Kg/cm^2	O=C([O-])CN(CCS(=O)(=O)[O-])CC(=O)[O-].[Na+].[Na+].[Na+] [Example 28, trisodium salt of taurine-N,N-diacetic acid]
1.2 Kg/cm^2	CN(CC(=O)[O-])CC(=O)[O-].[Na+].[Na+] [Example 29, disodium N-methyliminodiacetate]

Structure (SMILES)	Compression strength after stored for 2 months
O=C([O-])CN[C@@H](CC(=O)[O-])C(=O)[O-].[Na+].[Na+].[Na+] [Example 5, trisodium salt of (S)-aspartic acid-N-monoacetic acid]	1.2 Kg/cm^2
O=C([O-])CCN[C@@H](CC(=O)[O-])C(=O)[O-].[Na+].[Na+].[Na+] [Example 6, trisodium salt of (S)-aspartic acid-N-monopropionic acid]	1.2 Kg/cm^2
O=C(O)CN[C@@H](CC(=O)O)C(=O)O [Example 17, (S)-aspartic acid-N-monoacetic acid]	0.9 Kg/cm^2
O=C(O)CCN[C@@H](CC(=O)O)C(=O)O [Example 18, (S)-aspartic acid-N-monopropionic acid]	1.2 Kg/cm^2
O=C([O-])CN(CC(=O)[O-])c1ccccc1C(=O)[O-].[Na+].[Na+].[Na+] [Example 30, trisodium salt of anthranilic acid-N,N-diacetic acid]	1.2 Kg/cm^2

same assay, conditions: Load 200 (table head [Kg]; text 200 g/cm^2); 20-30° C., relative humidity 40-70%

Compression strength after stored for 2 months	Structure (SMILES)
0.9 Kg/cm^2	O=C([O-])C[C@@H](C(=O)[O-])N(CC(=O)[O-])CC(=O)[O-].[Na+].[Na+].[Na+].[Na+] [Example 3, tetrasodium salt of (S)-aspartic acid-N,N-diacetic acid]
1.1 Kg/cm^2	C[C@@H](C(=O)[O-])N(CC(=O)[O-])CC(=O)[O-].[Na+].[Na+].[Na+] [Example 4, trisodium salt of (S)-α-alanine-N,N-diacetic acid]
0.9 Kg/cm^2	O=C(O)C[C@@H](C(=O)O)N(CC(=O)O)CC(=O)O [Example 15, (S)-aspartic acid-N,N-diacetic acid]
0.8 Kg/cm^2	C[C@@H](C(=O)O)N(CC(=O)O)CC(=O)O [Example 16, (S)-α-alanine-N,N-diacetic acid]
1.1 Kg/cm^2	O=C([O-])CN(CCS(=O)(=O)[O-])CC(=O)[O-].[Na+].[Na+].[Na+] [Example 25, trisodium salt of taurine-N,N-diacetic acid]
1.2 Kg/cm^2	CN(CC(=O)[O-])CC(=O)[O-].[Na+].[Na+] [Example 26, disodium N-methyliminodiacetate]
1.2 Kg/cm^2	O=C(O)CN(CCS(=O)(=O)O)CC(=O)O [Example 34, taurine-N,N-diacetic acid]
0.8 Kg/cm^2	CN(CC(=O)O)CC(=O)O [Example 35, N-methyliminodiacetic acid]

Structure (SMILES)	Compression strength after stored for 2 months
O=C([O-])CCN[C@@H](CC(=O)[O-])C(=O)[O-].[Na+].[Na+].[Na+] [Example 2, trisodium salt of (S)-aspartic acid-N-monopropionic acid]	1.0 Kg/cm^2
O=C(O)CN[C@@H](CC(=O)O)C(=O)O [Example 13, (S)-aspartic acid-N-monoacetic acid]	1.1 Kg/cm^2
O=C(O)CCN[C@@H](CC(=O)O)C(=O)O [Example 14, (S)-aspartic acid-N-monopropionic acid]	0.6 Kg/cm^2
O=C([O-])CN(CC(=O)[O-])c1ccccc1C(=O)[O-].[Na+].[Na+].[Na+] [Example 27, trisodium salt of anthranilic acid-N,N-diacetic acid]	1.0 Kg/cm^2

same assay, conditions: Load 300 (table head [Kg]; text 300 g/cm^2); 20-30° C., relative humidity 40-70%

Compression strength after stored for 2 months	Structure (SMILES)
0.8 Kg/cm^2	O=C([O-])C[C@@H](C(=O)[O-])N(CC(=O)[O-])CC(=O)[O-].[Na+].[Na+].[Na+].[Na+] [Example 11, tetrasodium salt of (S)-aspartic acid-N,N-diacetic acid]
0.9 Kg/cm^2	C[C@@H](C(=O)[O-])N(CC(=O)[O-])CC(=O)[O-].[Na+].[Na+].[Na+] [Example 12, trisodium salt of (S)-α-alanine-N,N-diacetic acid]
1.0 Kg/cm^2	O=C(O)C[C@@H](C(=O)O)N(CC(=O)O)CC(=O)O [Example 23, (S)-aspartic acid-N,N-diacetic acid]
0.9 Kg/cm^2	C[C@@H](C(=O)O)N(CC(=O)O)CC(=O)O [Example 24, (S)-α-alanine-N,N-diacetic acid]
1.0 Kg/cm^2	O=C([O-])CN(CCS(=O)(=O)[O-])CC(=O)[O-].[Na+].[Na+].[Na+] [Example 31, trisodium salt of taurine-N,N-diacetic acid]
0.8 Kg/cm^2	CN(CC(=O)[O-])CC(=O)[O-].[Na+].[Na+] [Example 32, disodium N-methyliminodiacetate]

Structure (SMILES)	Compression strength after stored for 2 months
O=C([O-])CN[C@@H](CC(=O)[O-])C(=O)[O-].[Na+].[Na+].[Na+] [Example 9, trisodium salt of (S)-aspartic acid-N-monoacetic acid]	0.8 Kg/cm^2
O=C([O-])CCN[C@@H](CC(=O)[O-])C(=O)[O-].[Na+].[Na+].[Na+] [Example 10, trisodium salt of (S)-aspartic acid-N-monopropionic acid]	1.0 Kg/cm^2
O=C(O)CN[C@@H](CC(=O)O)C(=O)O [Example 21, (S)-aspartic acid-N-monoacetic acid]	0.8 Kg/cm^2
O=C(O)CCN[C@@H](CC(=O)O)C(=O)O [Example 22, (S)-aspartic acid-N-monopropionic acid]	0.9 Kg/cm^2
O=C([O-])CN(CC(=O)[O-])c1ccccc1C(=O)[O-].[Na+].[Na+].[Na+] [Example 33, trisodium salt of anthranilic acid-N,N-diacetic acid]	0.9 Kg/cm^2

same assay, conditions: after 2 months under the load of 200 [g/cm^2]

Structure (SMILES)	compression strength of the test piece	state of the test piece after storage
O=C([O-])CN[C@@H](CC(=O)[O-])C(=O)[O-].[Na+].[Na+].[Na+] [Example 1, trisodium salt of (S)-aspartic acid-N-monoacetic acid]	1.2 kg/cm^2	it could be disintegrated without any special grinding treatment
